Assay results: patent US6770650B2, “Cyclic amine derivatives-CCR-3 receptor antagonists” (Syntex (U.S.A.) LLC, priority 1997, dated 2004)

Tests used:
[1] = biological target: T1, CCR-3 receptor (Homo sapiens, UniProt P51677); test: CCR-3 Receptor Binding Assay, inhibition of 125I eotaxin binding to CCR-3 L1.2 transfectant cells; details: concentration required to reduce 125I-eotaxin binding to the CCR-3 L1.2 transfected cells by 50%
T1 construct: expressed in transfected cells; host or cells: L1.2 cells (murine pre-B lymphoma line)
T1 sequence (P51677 1-355): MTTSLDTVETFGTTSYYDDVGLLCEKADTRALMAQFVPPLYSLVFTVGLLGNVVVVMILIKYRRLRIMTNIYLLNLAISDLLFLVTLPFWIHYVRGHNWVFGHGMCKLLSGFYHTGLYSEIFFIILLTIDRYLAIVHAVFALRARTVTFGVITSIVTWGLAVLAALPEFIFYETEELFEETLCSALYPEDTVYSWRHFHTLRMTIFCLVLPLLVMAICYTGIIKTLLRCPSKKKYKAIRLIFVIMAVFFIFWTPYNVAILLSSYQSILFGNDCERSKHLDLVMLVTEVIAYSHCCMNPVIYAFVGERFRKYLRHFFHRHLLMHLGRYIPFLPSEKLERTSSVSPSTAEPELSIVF
Experimental: The CCR-3 antagonistic activity of the compounds of the invention was determined by their ability to inhibit the binding of ^125I eotaxin to CCR-3 L1.2 transfectant cells ((see Ponath, P. D. et al., J. Exp. Med., Vol. 183, 2437-2448, (1996)).
The assay was performed in Costar 96-well polypropylene round bottom plates. Test compounds were dissolved in DMSO and then diluted with binding buffer (50 mM HEPES, 1 mM CaCl2, 5 mM MgCl2, 0.5% bovine serum albumin (BSA), 0.02% sodium azide, pH 7.24) such that the final DMSO concentration was 2%. 25 μl of the test solution or only buffer with DMSO (control samples) was added to each well, followed by the addition of 25 μl of ^125I-eotaxin ([…]) (NEX314, New England Nuclear, Boston, Mass.) and 1.5×10^5 of the CCR-3 L1.2 transfected cells in 25 μl binding buffer. The final reaction volume was 75 μl.
After incubating the reaction mixture for 1 h at room temperature, the reaction was terminated by filtering the reaction mixture through polyethylenimine treated Packard Unifilter GF/C filter plate (Packard, Chicago, Ill.). The filters were washed four times with ice cold wash buffer containing 10 mm HEPES and 0.5M sodium chloride (pH 7.2) and dried at 65° C. for approximately 10 min. 25 μl/well of Microscint-20™ scintillation fluid (Packard) was added and the radioactivity retained on the filters was determined by using the Packard TopCount™.
The IC50 value (concentration of test compound required to reduce ^125I-eotaxin binding to the CCR-3 L1.2 transfected cells by 50%) for some of the compounds of the invention was: […]

[2] = tested on: CCR-3 L1.2 transfectant cells; test: Inhibition of eotaxin mediated chemotaxis of CCR-3 L1.2 transfectant cells; format: cell-based; details: concentration required to reduce eotaxin mediated chemotaxis of CCR-3 L1.2 transfected cells by 50%
Experimental: The CCR-3 antagonistic activity of the compounds of this invention was determined by measuring the inhibition of eotaxin mediated chemotaxis of the CCR-3 L1.2 transfectant cells, using a slight modification of the method described in Ponath, P. D. et al., J. Clin. Invest. 97: 604-612 (1996). The assay was performed in a 24-well chemotaxis plate (Costar Corp., Cambridge Mass.) CCR-3 L1.2 transfectant cells were grown in culture medium containing RPMI 1640, 10% Hyclone™ fetal calf serum, […] 2-mercaptoethanol and Geneticin 418 (0.8 mg/ml). 18-24 hours before the assay, the transfected cells were treated with n-butyric acid at a final concentration of 5 mM/1×10^6 cells/ml, isolated and resuspended at 1×10^7 cells/ml in assay medium containing equal parts of RPMI 1640 and Medium 199 (M 199) with 0.5% bovine serum albumin.
Human eotaxin suspended in phosphate buffered saline at 1 mg/ml was added to bottom chamber in a final concentration of 100 nm. Transwell culture inserts (Costar Corp., Cambridge Mass.) having 3 micron pore size were inserted into each well and L1.2 cells (1×10^6) were added to the top chamber in a final volume of 100 μl. Test compounds in DMSO were added both to the top and bottom chambers such that the final DMSO volume was 0.5%. The assay was performed against two sets of controls. The positive control contained cells with no test compound in the top chamber and only eotaxin in the lower chamber. The negative control contained cells with no test compound in the top chamber and neither eotaxin nor test compound in lower chamber. The plate was incubated at 37° C. After 4 h, the inserts were removed from the chambers and the cells that had migrated to the bottom chamber were counted by pipetting out 500 μl of the cell suspension from the lower chamber to 1.2 ml Cluster tubes (Costar) and counting them on a FACS for 30 sec.
The IC50 value (concentration of test compound required to reduce eotaxin mediated chemotaxis of CCR-3 L1.2 transfected cells by 50%) for some of the compounds of the invention was: […]

Row | SMILES | IC50 [1] [µM] | IC50 [2] [µM] | melting point [°C]
1 | COc1cc(N)c(Cl)cc1C(=O)NCC1CCN(CC(NC(=O)c2ccc(C)cc2)C(C)C)CC1 (racemic) [compound 59, N-{1-(RS)-[4-(4-Amino-5-chloro-2-methoxyphenylcarbonylaminomethyl)piperidin-1-yl-methyl]-2-methylpropyl}-4-methylbenzamide] | 0.95 | 0.21 | 
2 | COc1cccc(NC(=O)NC2CCCCC2N2CCN(Cc3ccc(Cl)c(Cl)c3)CC2)c1 (racemic) [compound 84, 1-{2(RS)-[4-(3,4-Dichlorobenzyl)piperazin-1-yl]cyclohexyl}-3-(3-methoxyphenyl)urea] | 0.69 | 0.46 | 
3 | Cc1ccc(C(=O)N[C@H](CN2CCC(Cc3ccc(Cl)c(Cl)c3)CC2)C(C)C)cc1 [compound 57, N-{1-(S)-[4-(3,4-Dichlorobenzyl)piperidin-1-ylmethyl]-2-methylpropyl}-4-methylbenzamide] |  | 0.24 | 
4 | Cc1cc(C)c(NC(=O)N[C@@H](CN2CCN(Cc3ccc(Cl)c(Cl)c3)CC2)C(C)C)c(C)c1 [compound 93] | 3.37 | 0.06 | 271.1 to 275.5
